The source of these data is US20220105124A1, “METHODS FOR TARGETED TREATMENT AND PREDICTION OF PATIENT SURVIVAL IN CANCER” (University of Florida Research Foundation, Incorporated, priority 2019, published 2022).

In the assay the test system is GBM cells with high VDR expression. Kind of assay: Treating GBM cells with high VDR expression with vitamin D. It is filed as cell-based. The settings on record: GBM cells with high VDR expression treated with vitamin D. The source says: The influence of vitamin D is also examined for its role the link between VDR (vitamin D receptor) and GBM prognosis. Addition of vitamin D is used to determine if vitamin D will direct VDR to a beneficial pro-immune function of liganded VDR. Removal of vitamin D is used to determine if vitamin D deficiency leads to harmful pro-tumor unliganded VDR signal.

Consider Vitamin D, for which the Sox2 expression result was “signal from VDR, leading to lower Sox2,”; the VDR expression result is “unaffected”; the “abnormal signal from VDR” value is reported as “cells with vitamin D reduces this abnormal”.
